For test [1], the target named is T1, Activin receptor type-1 (Homo sapiens, UniProt Q04771).
T1 sequence (Q04771 whole entry): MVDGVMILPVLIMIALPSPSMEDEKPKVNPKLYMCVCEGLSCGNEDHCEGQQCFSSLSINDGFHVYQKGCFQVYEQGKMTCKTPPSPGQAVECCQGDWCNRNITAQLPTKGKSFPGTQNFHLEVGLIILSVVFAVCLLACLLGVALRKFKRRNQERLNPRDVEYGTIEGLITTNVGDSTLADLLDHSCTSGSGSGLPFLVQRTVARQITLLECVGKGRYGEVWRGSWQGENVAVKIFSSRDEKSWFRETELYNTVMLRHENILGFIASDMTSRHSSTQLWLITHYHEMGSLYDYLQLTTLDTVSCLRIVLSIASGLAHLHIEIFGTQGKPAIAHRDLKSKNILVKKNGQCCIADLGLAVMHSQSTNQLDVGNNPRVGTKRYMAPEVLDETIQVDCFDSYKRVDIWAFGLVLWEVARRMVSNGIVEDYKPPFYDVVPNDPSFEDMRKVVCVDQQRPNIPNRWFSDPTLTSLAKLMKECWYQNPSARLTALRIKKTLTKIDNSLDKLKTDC
Description: Inhibition of ALK2 (unknown origin).

Test [2] addresses T1, Activin receptor type-1. Description: Inhibition of ALK2 in human HeLa cells assessed as inhibition of SMAD1 phosphorylation. It counts as cell-based.
Test [3] has as its target Activin receptor type-1-like (Homo sapiens, UniProt P37023). Description: Inhibition of ALK1 (unknown origin). The class given is toxicity.
The target of test [4] is T2, Bone morphogenetic protein receptor type-1A (Homo sapiens, UniProt P36894). Description: Inhibition of ALK3 (unknown origin).
Test [5] deals with T2, Bone morphogenetic protein receptor type-1A. Description: Inhibition of human recombinant ALK3 (198 to 525 residues) expressed in baculovirus-infected insect cells by ADP-Glo kinase assay. (In general: In ADP-Glo the light output rises with the ADP produced.)
For test [6], the target named is T1, Activin receptor type-1. Description: Inhibition of human recombinant ALK2 (172 to 499 residues) expressed in baculovirus-infected insect cells by ADP-Glo kinase assay.

T2 sequence (P36894 whole entry, the tested form may be a part): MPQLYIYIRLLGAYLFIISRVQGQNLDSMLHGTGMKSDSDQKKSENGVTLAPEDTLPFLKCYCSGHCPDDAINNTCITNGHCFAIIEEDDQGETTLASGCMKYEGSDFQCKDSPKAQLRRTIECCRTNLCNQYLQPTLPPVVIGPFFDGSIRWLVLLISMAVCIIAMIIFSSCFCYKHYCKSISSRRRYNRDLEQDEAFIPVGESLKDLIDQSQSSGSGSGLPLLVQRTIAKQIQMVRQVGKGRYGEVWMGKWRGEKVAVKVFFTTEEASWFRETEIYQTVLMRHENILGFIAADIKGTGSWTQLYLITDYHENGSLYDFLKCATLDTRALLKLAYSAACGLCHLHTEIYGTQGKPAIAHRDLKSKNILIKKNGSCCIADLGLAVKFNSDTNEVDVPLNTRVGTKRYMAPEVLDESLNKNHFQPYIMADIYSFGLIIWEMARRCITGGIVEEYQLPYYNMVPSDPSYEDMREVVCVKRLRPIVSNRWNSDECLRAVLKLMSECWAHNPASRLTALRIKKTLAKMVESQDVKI
Chain of Activin receptor type-1-like (P37023 whole entry): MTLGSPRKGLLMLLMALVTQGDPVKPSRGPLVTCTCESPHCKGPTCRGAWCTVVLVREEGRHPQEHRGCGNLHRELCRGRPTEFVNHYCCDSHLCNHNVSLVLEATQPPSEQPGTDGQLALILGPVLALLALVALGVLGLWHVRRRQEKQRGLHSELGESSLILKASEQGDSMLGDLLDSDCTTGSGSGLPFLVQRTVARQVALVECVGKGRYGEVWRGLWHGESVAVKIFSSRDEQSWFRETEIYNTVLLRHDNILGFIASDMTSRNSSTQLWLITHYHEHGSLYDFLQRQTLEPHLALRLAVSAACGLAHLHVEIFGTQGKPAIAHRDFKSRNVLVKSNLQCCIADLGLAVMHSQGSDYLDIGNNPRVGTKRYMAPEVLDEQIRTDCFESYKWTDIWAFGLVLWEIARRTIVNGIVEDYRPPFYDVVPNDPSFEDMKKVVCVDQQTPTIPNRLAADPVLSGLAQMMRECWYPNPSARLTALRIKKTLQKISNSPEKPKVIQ

For orientation: IC50 means the point on the concentration scale where inhibition reaches its midpoint. `Nc1ncc(-c2cnn(C3CCNCC3)c2)c2c1C(=O)N(C1C3CC4CC(C3)CC1C4)CC2` (stereo unspecified): the IC50 in test [1] came to 5.3 nM; in test [2], 415 nM; in test [3], 27 nM; in test [4], 400 nM.
For the molecule `C[C@@H]1CCCN1Cc1ccc(-c2cnc(N)c(C(=O)N[C@H]3CC[C@](C)(O)CC3)c2)cc1F`, the IC50 in test [5] amounted to 560 nM; in test [6] it was 3.6 nM.
